Measured values published in patent publication US20260200926A1, “TREM2 MODULATORS” (Muna Therapeutics ApS, priority 2022, published 2026).

Target: T1, Human TREM2 (Homo sapiens, UniProt Q9NZC2)
T1 construct: expressed in transfected cells
Assay: Human TREM2 activity: cellular phosphorylation of Syk (AlphaLISA SureFire Ultra p-SYK) in HEK293/DAP12+TREM2 stable cell line
Format: cell-based
Details: for Emax: HEK293, maximal response relative to reference agonist example 1B (remaining examples), read-out: Emax; for EC50: phospho-Syk AlphaLISA signal, HEK293/DAP12+TREM2 cells, concentration giving 50% of maximal response, read-out: EC50
Summary of the method: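 The read-out was p-Syk (Tyr525/526), measured by AlphaLISA in lysates of a stable HEK293/DAP12+TREM2 clone. Cells (10,000/well, plated the day before) received compound for 30 min at 37 °C. Dosing used 8 points in quadruplicate, top 100 μM with 1:6 dilution, 0.5% final DMSO.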

T1 sequence (Q9NZC2 19-230): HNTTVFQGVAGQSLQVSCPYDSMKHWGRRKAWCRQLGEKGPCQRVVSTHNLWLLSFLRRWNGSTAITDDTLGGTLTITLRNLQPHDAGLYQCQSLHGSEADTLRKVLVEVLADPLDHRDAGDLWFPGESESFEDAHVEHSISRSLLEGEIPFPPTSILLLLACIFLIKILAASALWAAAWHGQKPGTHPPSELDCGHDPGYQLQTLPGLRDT
T1 sequence (O43914 22-113 partner): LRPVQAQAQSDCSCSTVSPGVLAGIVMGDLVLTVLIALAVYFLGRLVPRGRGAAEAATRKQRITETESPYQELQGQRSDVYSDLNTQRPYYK

With `Cc1cc([C@@H]2CN(c3nc(-c4ccc(F)cc4F)c4nc(C)n(C)c(=O)c4n3)CC(F)(F)O2)ccn1` (single isomer, unassigned) [Example 169A] the Emax was 75 to 110% and the EC50 was < 0.001 µM.

`Cc1cc([C@H]2CN(c3nc(-c4ccc(F)cc4F)c4nc(C)n(C)c(=O)c4n3)CC(F)(F)O2)ccn1` (single isomer, unassigned) [Example 169B] was tested, and the Emax was 75 to 110% and the EC50 was 0.01 to 0.1 µM.

In the case of `Cc1cc([C@@H]2CN(c3nc(-c4ccc(F)cc4F)c4nc(C)n(C)c(=O)c4n3)CC(C)(C)O2)ccn1` (single isomer, unassigned) [Example 170A], the Emax is reported as < 75% and the EC50 is reported as 0.1 to 1 µM.

`Cc1cc([C@H]2CN(c3nc(-c4ccc(F)cc4F)c4nc(C)n(C)c(=O)c4n3)CC(C)(C)O2)ccn1` (single isomer, unassigned) [Example 170B] gave an Emax of 75 to 110% and an EC50 of 0.001 to 0.01 µM.

In the case of `Cc1cc([C@@H]2CN(c3cc4c(=O)n(C)c(C)nc4c(-c4ccc(F)cc4F)n3)CC(F)(F)O2)ccn1` (single isomer, unassigned) [Example 171A], the Emax is reported as > 110% and the EC50 is reported as 0.001 to 0.01 µM.

`Cc1cc([C@H]2CN(c3cc4c(=O)n(C)c(C)nc4c(-c4ccc(F)cc4F)n3)CC(F)(F)O2)ccn1` (single isomer, unassigned) [Example 171B] was tested, and the Emax was < 75% and the EC50 was 0.1 to 1 µM.

With `Cc1cc([C@@H]2CN(c3cc4c(=O)n(C)c(C)nc4c(-c4ccc(Cl)cc4F)n3)CC(C)(C)O2)ccn1` (single isomer, unassigned) [Example 172A] the Emax was < 75% and the EC50 was 0.1 to 1 µM.

`Cc1cc([C@H]2CN(c3cc4c(=O)n(C)c(C)nc4c(-c4ccc(Cl)cc4F)n3)CC(C)(C)O2)ccn1` (single isomer, unassigned) [Example 172B] gave an Emax of 75 to 110% and an EC50 of 0.001 to 0.01 µM.

`Cc1nc2c(-c3ccc(Cl)cc3F)nc(N3C[C@@H](c4cnn(C)c4)OC4(CC4)C3)c(F)c2c(=O)n1C` (single isomer, unassigned) [Example 173A] was tested, and the Emax was < 75% and the EC50 was 0.01 to 0.1 µM.

With `Cc1nc2c(-c3ccc(Cl)cc3F)nc(N3C[C@H](c4cnn(C)c4)OC4(CC4)C3)c(F)c2c(=O)n1C` (single isomer, unassigned) [Example 173B] the Emax was < 75% and the EC50 was 0.01 to 0.1 µM.

`Cc1cc([C@@H]2CN(c3nc(-c4ccc(F)cc4F)c4nc(C(F)(F)F)n(C)c(=O)c4c3F)CCO2)ccn1` (single isomer, unassigned) [Example 174A] was tested, and the Emax was < 75% and the EC50 was 0.01 to 0.1 µM.

In the case of `Cc1cc([C@H]2CN(c3nc(-c4ccc(F)cc4F)c4nc(C(F)(F)F)n(C)c(=O)c4c3F)CCO2)ccn1` (single isomer, unassigned) [Example 174B], the Emax is reported as < 75% and the EC50 is reported as 0.1 to 1 µM.

For `Cc1cc([C@@H]2CN(c3nc(-c4ccc(F)cc4F)c4nc(C)n(C)c(=O)c4n3)C[C@H](C)O2)ccn1` (single isomer, unassigned) [Example 175A], the Emax was 75 to 110% and the EC50 was 0.001 to 0.01 µM.

For `Cc1cc([C@H]2CN(c3nc(-c4ccc(F)cc4F)c4nc(C)n(C)c(=O)c4n3)C[C@@H](C)O2)ccn1` (single isomer, unassigned) [Example 175B], the Emax was 75 to 110% and the EC50 was 0.01 to 0.1 µM.

With `Cc1cc([C@@H]2CN(c3nc(-c4ccc(Cl)cc4F)c4nc(C)n(C)c(=O)c4n3)C[C@H](C)O2)ccn1` (single isomer, unassigned) [Example 176A] the Emax was 75 to 110% and the EC50 was < 0.001 µM.

In the case of `Cc1cc([C@H]2CN(c3nc(-c4ccc(Cl)cc4F)c4nc(C)n(C)c(=O)c4n3)C[C@@H](C)O2)ccn1` (single isomer, unassigned) [Example 176B], the Emax is reported as 75 to 110% and the EC50 is reported as 0.001 to 0.01 µM.

`Cc1nc2c(-c3ccc(F)cc3F)nc(N3C[C@@H](c4cnn(C5CC5)c4)O[C@@H](C)C3)nc2c(=O)n1C` (single isomer, unassigned) [Example 177A] was tested, and the Emax was < 75% and the EC50 was 0.01 to 0.1 µM.

In the case of `Cc1nc2c(-c3ccc(F)cc3F)nc(N3C[C@@H](C)O[C@@H](c4cnn(C5CC5)c4)C3)nc2c(=O)n1C` (single isomer, unassigned) [Example 177B], the Emax is reported as 75 to 110% and the EC50 is reported as 0.001 to 0.01 µM.

Compound `Cc1nc2c(-c3ccc(Cl)cc3F)nc(N3C[C@@H](c4cnn(C5CC5)c4)O[C@@H](C)C3)nc2c(=O)n1C` (single isomer, unassigned) [Example 178A] has an Emax of 75 to 110% and an EC50 of 0.001 to 0.01 µM.

In the case of `Cc1nc2c(-c3ccc(Cl)cc3F)nc(N3C[C@@H](C)O[C@@H](c4cnn(C5CC5)c4)C3)nc2c(=O)n1C` (single isomer, unassigned) [Example 178B], the Emax is reported as 75 to 110% and the EC50 is reported as 0.001 to 0.01 µM.

Work on `Cc1cc([C@@H]2CN(c3nc(-c4ccc(C(F)(F)F)cc4F)c4nc(C)n(C)c(=O)c4n3)C[C@H](C)O2)ccn1` (single isomer, unassigned) [Example 179A] yielded an Emax of 75 to 110% and an EC50 of 0.001 to 0.01 µM.

`Cc1cc([C@H]2CN(c3nc(-c4ccc(C(F)(F)F)cc4F)c4nc(C)n(C)c(=O)c4n3)C[C@@H](C)O2)ccn1` (single isomer, unassigned) [Example 179B] was tested, and the Emax was 75 to 110% and the EC50 was < 0.001 µM.

`Cc1cc([C@@H]2CN(c3cc4c(=O)n(C)c(C)nc4c(-c4ccc(C(F)F)nc4)n3)CC(C)(C)O2)ccn1` (single isomer, unassigned) [Example 180A] was tested, and the Emax was < 75% and the EC50 was > 1 µM.

`Cc1cc([C@H]2CN(c3cc4c(=O)n(C)c(C)nc4c(-c4ccc(C(F)F)nc4)n3)CC(C)(C)O2)ccn1` (single isomer, unassigned) [Example 180B] was tested, and the Emax was < 75% and the EC50 was 0.01 to 0.1 µM.

`Cc1cc([C@@H]2CN(c3cc4c(=O)n(C)c(C)nc4c(-c4ccc(C(F)F)nc4)n3)CC(F)(F)O2)ccn1` (single isomer, unassigned) [Example 181A] was tested, and the Emax was < 75% and the EC50 was 0.01 to 0.1 µM.

`Cc1cc([C@H]2CN(c3cc4c(=O)n(C)c(C)nc4c(-c4ccc(C(F)F)nc4)n3)CC(F)(F)O2)ccn1` (single isomer, unassigned) [Example 181B] showed an Emax of 75 to 110% and an EC50 of 0.001 to 0.01 µM.

With `Cc1cc([C@@H]2CN(c3cc4c(=O)n(C)c(C)nc4c(-c4ccc(F)cc4F)n3)C[C@H](C)O2)ccn1` (single isomer, unassigned) [Example 182A] the Emax was > 110% and the EC50 was 0.001 to 0.01 µM.

With `Cc1cc([C@H]2CN(c3cc4c(=O)n(C)c(C)nc4c(-c4ccc(F)cc4F)n3)C[C@@H](C)O2)ccn1` (single isomer, unassigned) [Example 182B] the Emax was < 75% and the EC50 was 0.1 to 1 µM.

With `C[C@H]1CN(c2nc(-c3ccc(F)cc3F)c3nc(C(F)(F)F)n(C)c(=O)c3n2)C[C@@H](c2cnn(C3CC3)c2)O1` (single isomer, unassigned) [Example 183A] the Emax was 75 to 110% and the EC50 was 0.001 to 0.01 µM.

In the case of `C[C@@H]1CN(c2nc(-c3ccc(F)cc3F)c3nc(C(F)(F)F)n(C)c(=O)c3n2)C[C@H](c2cnn(C3CC3)c2)O1` (single isomer, unassigned) [Example 183B], the Emax is reported as 75 to 110% and the EC50 is reported as < 0.001 µM.

With `Cc1nc2c(-c3ccc(C(F)(F)F)nc3)nc(N3C[C@@H](c4cnn(C5CC5)c4)O[C@@H](C)C3)cc2c(=O)n1C` (single isomer, unassigned) [Example 184A] the Emax was 75 to 110% and the EC50 was 0.001 to 0.01 µM.

`Cc1nc2c(-c3ccc(C(F)(F)F)nc3)nc(N3C[C@@H](C)O[C@@H](c4cnn(C5CC5)c4)C3)cc2c(=O)n1C` (single isomer, unassigned) [Example 184B] was tested, and the Emax was < 75% and the EC50 was 0.01 to 0.1 µM.
